{"source": "patent US20050147565A1", "about": "“Pharmaceutical compositions for the treatment of asthma” (Schering Corporation, priority 2001, published 2005)", "key": {"[1]": {"experiment": "Andersen Cascade Impactor particle size distribution of the emitted dose of the metered dose inhaler", "assay_type": "physicochemical", "conditions": "Formoterol/Mometasone 6/50 μg/actuation inhaler", "excerpt": "The formulations of the present invention were further analyzed using an Andersen Cascade Impactor as described in Examples 6 and 7. The Andersen Cascade Impactor is widely used for measuring the particle size distribution of airborne particles and more specifically pharmaceutical aerosols. The eight stage Andersen Impactor separates the sample into nine size intervals when used with a backup filter after the last impaction stage. In FIGS. 1 to 4, this corresponds Stage 0 of particles having a particle size less than 10 μm to a particle size of 0.65-0.43 μm in stage 8, with the final stage corresponding to the filter for particles less than 0.43 μm. The measurement of the particle size at the “throat” in the figures corresponds to the entry port of the Impactor. The fine particle fraction is defined as the percentage of particles having a particle size of less than 4.7 μm. The fine particle dose is defined as the amount in μg per dose that is less than 4.7 μm in size in each actuation. The μg/shot is the total amount of emitted drug product that exits the metered dose inhaler upon actuation. The determination of the particle size distribution of the emitted dose of the formulation using an Andersen Cascade Impactor is known to one of skill in the art.\nA formulation containing 6 μg of formoterol fumarate and 50 μg of mometasone furoate using HFA 227 in the absence of a bulking agent or carrier in a metered dose inhaler was analyzed by an Andersen Cascade Impactor to 5 analyze the amount of active drug ingredients and the particle size of the actives exiting the inhaler over time. […] The metered dose for both actives over time was also within acceptable limits (62.9 to 63.3 for mometasone and 6.6 to 6.5 for formoterol at the 4 month point). […]\nA formulation containing 6 μg of formoterol fumarate and 50 μg of mometasone furoate using HFA 134a with lactose as a bulking agent in a metered dose inhaler was analyzed by an Andersen Cascade Impactor to analyze the amount of active drug ingredients and the particle size of the actives exiting the inhaler over time. […] Additionally, the metered dose actually delivered was also maintained over time within acceptable limits (64.1 to 63.7 for mometasone, 6.9 to 6.6 for formoterol). The fine particle fraction for both mometasone and formoterol was maintained within acceptable limits."}, "[2]": {"conditions": "cited from earlier work"}, "[3]": {"experiment": "Drug Content Uniformity (DCU) through the life of a 120 dose MDI", "assay_type": "physicochemical", "conditions": "Formoterol/Mometasone 6/50 μg/actuation inhaler", "description": "The Drug Content Uniformity (DCU) of the inhaler was measured throughout the life of a 120 dose MDI to ascertain whether there was a consistency of dose of the active ingredients throughout the life of the product. Five canisters of each formulation (HFA 227 or HFA 134a) were analyzed and each canister delivered 120 actuations of medication and the amount of actives exiting the inhaler per actuation was measured at varying actuations, e.g., numbers 11, 12, 13, 14, (beginning) 59, 60, 61, 62 (middle) and 117, 118, 119 and 120 (end). Means were determined for the beginning, middle and end actuations, and an overall mean was determined and set forth in Examples 9 and 10 above."}, "[4]": {"experiment": "Percent change in fine particle size after temperature cycling", "assay_type": "physicochemical", "excerpt": "A finer particle size distribution of the mometasone furoate improves the fine particle fraction of the formulation exiting the inhaler upon actuation of the metered dose inhaler. […] The aerodynamic particle size distribution is well within the range of a typical efficacious topical lung medication, e.g., greater than 50% of the particles are less than 4.7 microns."}, "[5]": {"conditions": "cited from earlier work", "remark": "listed apart in the source"}, "[6]": {"conditions": "HFA 134a, low bulking agent (lactose), 1 Month, 4 C./40 C."}, "[7]": {"conditions": "HFA 134a, low bulking agent (lactose), 1 Month, 40 C./75%"}, "[8]": {"conditions": "HFA 134a, low bulking agent (lactose), 3 Month, 4 C./40 C."}, "[9]": {"conditions": "HFA 134a, low bulking agent (lactose), 4 Month, 25 C./60%"}, "[10]": {"conditions": "HFA 134a, low bulking agent (lactose), 4 Month, 40 C./75%"}, "[11]": {"conditions": "HFA 134a, low bulking agent (lactose), Initial"}, "[12]": {"conditions": "HFA 227, without bulking agent, 1 Month, 4 C./40 C."}, "[13]": {"conditions": "HFA 227, without bulking agent, 1 Month, 40 C./75%"}, "[14]": {"conditions": "HFA 227, without bulking agent, 3 Month, 4 C./40 C."}, "[15]": {"conditions": "HFA 227, without bulking agent, 4 Month, 25 C./60%"}, "[16]": {"conditions": "HFA 227, without bulking agent, 4 Month, 40 C./75%"}, "[17]": {"conditions": "HFA 227, without bulking agent, Initial"}}}
{"smiles": "C[C@@H]1C[C@H]2[C@@H]3CCC4=CC(=O)C=C[C@]4(C)[C@@]3(Cl)[C@@H](O)C[C@]2(C)[C@@]1(OC(=O)c1ccco1)C(=O)CCl", "note": "[Mometasone Furoate, 9,21-Dichloro-11(beta), 17-dihydroxy-16(alpha)-methylpregna-1,4-diene-3,20-dione 17-(2 furoate)]", "values": [{"measurement": "Fine Particle Dose (μg/shot)", "setting": "[1]; [6]", "result": 10.6, "unit": "μg/shot"}, {"measurement": "Fine Particle Fraction %", "setting": "[1]; [6]", "result": 20.1, "unit": "%"}, {"measurement": "MMAD (microns)", "setting": "[1]; [6]", "result": 4.3, "unit": "microns"}, {"measurement": "μg/shot (metered dose)", "setting": "[1]; [6]", "result": 65.0, "unit": "μg/shot"}, {"measurement": "Fine Particle Dose (μg/shot)", "setting": "[1]; [7]", "result": 10.1, "unit": "μg/shot"}, {"measurement": "Fine Particle Fraction %", "setting": "[1]; [7]", "result": 20.1, "unit": "%"}, {"measurement": "MMAD (microns)", "setting": "[1]; [7]", "result": 4.3, "unit": "microns"}, {"measurement": "μg/shot (metered dose)", "setting": "[1]; [7]", "result": 62.2, "unit": "μg/shot"}, {"measurement": "Fine Particle Dose (μg/shot)", "setting": "[1]; [8]", "result": 10.0, "unit": "μg/shot"}, {"measurement": "Fine Particle Fraction %", "setting": "[1]; [8]", "result": 20.0, "unit": "%"}, {"measurement": "MMAD (microns)", "setting": "[1]; [8]", "result": 4.6, "unit": "microns"}, {"measurement": "μg/shot (metered dose)", "setting": "[1]; [8]", "result": 62.6, "unit": "μg/shot"}, {"measurement": "Fine Particle Dose (μg/shot)", "setting": "[1]; [9]", "result": 11.4, "unit": "μg/shot"}, {"measurement": "Fine Particle Fraction %", "setting": "[1]; [9]", "result": 22.6, "unit": "%"}, {"measurement": "MMAD (microns)", "setting": "[1]; [9]", "result": 4.3, "unit": "microns"}, {"measurement": "μg/shot (metered dose)", "setting": "[1]; [9]", "result": 62.1, "unit": "μg/shot"}, {"measurement": "Fine Particle Dose (μg/shot)", "setting": "[1]; [10]", "result": 8.8, "unit": "μg/shot"}, {"measurement": "Fine Particle Fraction %", "setting": "[1]; [10]", "result": 17.7, "unit": "%"}, {"measurement": "MMAD (microns)", "setting": "[1]; [10]", "result": 4.5, "unit": "microns"}, {"measurement": "μg/shot (metered dose)", "setting": "[1]; [10]", "result": 63.7, "unit": "μg/shot"}, {"measurement": "Fine Particle Dose (μg/shot)", "setting": "[1]; [11]", "result": 13.6, "unit": "μg/shot"}, {"measurement": "Fine Particle Fraction %", "setting": "[1]; [11]", "result": 25.7, "unit": "%"}, {"measurement": "MMAD (microns)", "setting": "[1]; [11]", "result": 3.9, "unit": "microns"}, {"measurement": "μg/shot (metered dose)", "setting": "[1]; [11]", "result": 64.1, "unit": "μg/shot"}, {"measurement": "Fine Particle Dose (μg/shot)", "setting": "[1]; [12]", "result": 9.2, "unit": "μg/shot"}, {"measurement": "Fine Particle Fraction %", "setting": "[1]; [12]", "result": 16.4, "unit": "%"}, {"measurement": "MMAD (microns)", "setting": "[1]; [12]", "result": 5.0, "unit": "microns"}, {"measurement": "μg/shot (metered dose)", "setting": "[1]; [12]", "result": 62.6, "unit": "μg/shot"}, {"measurement": "Fine Particle Dose (μg/shot)", "setting": "[1]; [13]", "result": 13.9, "unit": "μg/shot"}, {"measurement": "Fine Particle Fraction %", "setting": "[1]; [13]", "result": 25.3, "unit": "%"}, {"measurement": "MMAD (microns)", "setting": "[1]; [13]", "result": 4.1, "unit": "microns"}, {"measurement": "μg/shot (metered dose)", "setting": "[1]; [13]", "result": 62.4, "unit": "μg/shot"}, {"measurement": "Fine Particle Dose (μg/shot)", "setting": "[1]; [14]", "result": 5.3, "unit": "μg/shot"}, {"measurement": "Fine Particle Fraction %", "setting": "[1]; [14]", "result": 9.8, "unit": "%"}, {"measurement": "MMAD (microns)", "setting": "[1]; [14]", "result": 6.3, "unit": "microns"}, {"measurement": "μg/shot (metered dose)", "setting": "[1]; [14]", "result": 60.5, "unit": "μg/shot"}, {"measurement": "Fine Particle Dose (μg/shot)", "setting": "[1]; [15]", "result": 16.1, "unit": "μg/shot"}, {"measurement": "Fine Particle Fraction %", "setting": "[1]; [15]", "result": 30.4, "unit": "%"}, {"measurement": "MMAD (microns)", "setting": "[1]; [15]", "result": 4.2, "unit": "microns"}, {"measurement": "μg/shot (metered dose)", "setting": "[1]; [15]", "result": 61.5, "unit": "μg/shot"}, {"measurement": "Fine Particle Dose (μg/shot)", "setting": "[1]; [16]", "result": 10.4, "unit": "μg/shot"}, {"measurement": "Fine Particle Fraction %", "setting": "[1]; [16]", "result": 18.6, "unit": "%"}, {"measurement": "MMAD (microns)", "setting": "[1]; [16]", "result": 4.6, "unit": "microns"}, {"measurement": "μg/shot (metered dose)", "setting": "[1]; [16]", "result": 63.3, "unit": "μg/shot"}, {"measurement": "Fine Particle Dose (μg/shot)", "setting": "[1]; [17]", "result": 19.7, "unit": "μg/shot"}, {"measurement": "Fine Particle Fraction %", "setting": "[1]; [17]", "result": 36.5, "unit": "%"}, {"measurement": "MMAD (microns)", "setting": "[1]; [17]", "result": 3.7, "unit": "microns"}, {"measurement": "μg/shot (metered dose)", "setting": "[1]; [17]", "result": 62.9, "unit": "μg/shot"}, {"measurement": "solubility in acetone", "setting": "[2]; acetone", "result": "soluble"}, {"measurement": "solubility in chloroform", "setting": "[2]; chloroform", "result": "soluble"}, {"measurement": "solubility in ethanol", "setting": "[2]; ethanol", "result": "slightly soluble"}, {"measurement": "solubility in isopropanol", "setting": "[2]; isopropanol", "result": "slightly soluble"}, {"measurement": "solubility in methanol", "setting": "[2]; methanol", "result": "slightly soluble"}, {"measurement": "solubility in tetrahydrofuran", "setting": "[2]; tetrahydrofuran", "result": "freely soluble"}, {"measurement": "solubility in water", "setting": "[2]; water", "result": "practically insoluble"}, {"measurement": "Overall Mean μg/shot", "setting": "[3]; HFA 134a, low bulking agent, 1 Month, 4 C./40 C.", "result": 55.7, "unit": "μg/shot"}, {"measurement": "Overall Mean μg/shot", "setting": "[3]; HFA 134a, low bulking agent, 1 Month, 40 C./75%", "result": 57.0, "unit": "μg/shot"}, {"measurement": "Overall Mean μg/shot", "setting": "[3]; HFA 134a, low bulking agent, Initial", "result": 59.1, "unit": "μg/shot"}, {"measurement": "Overall Mean μg/shot", "setting": "[3]; HFA 227, no bulking agent, 1 Month, 4 C./40 C.", "result": 55.6, "unit": "μg/shot"}, {"measurement": "Overall Mean μg/shot", "setting": "[3]; HFA 227, no bulking agent, 1 Month, 40 C./75%", "result": 54.9, "unit": "μg/shot"}, {"measurement": "Overall Mean μg/shot", "setting": "[3]; HFA 227, no bulking agent, Initial", "result": 54.7, "unit": "μg/shot"}, {"measurement": "percent change in fine particle size", "setting": "[4]; grade of mometasone used in Example 6 (coarse), two weeks of temperature cycling at −10° C. and 40° C.", "result": "about 50%"}, {"measurement": "percent change in fine particle size", "setting": "[4]; similar mdi using mometasone furoate alone, finer grade of mometasone furoate, same cycling conditions (two weeks, −10° C. and 40° C.)", "result": "≤ 15", "unit": "%"}, {"measurement": "partition coefficient between octanol and water", "setting": "[5]", "result": "greater than 5000"}]}
